Test results reported in patent US11753403B2, “EIF4E inhibitors and uses thereof” (PIC Therapeutics, Inc., priority 2020, dated 2023).

Molecular target: Human eIF4E (aa 28-217) / biotin labeled 4G2 peptide (Homo sapiens (Human), UniProt P06730)
Experiment: Human eIF4E/4G2 binding assay (TR-FRET)
Conditions: Human eIF4E/4G2 TR-FRET binding assay; head says IC50, legend says EC50
In short: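 Refolded His-tagged human eIF4E (aa 28-217), 82.5 nM working stock, preincubated 4 h at RT with compounds (10-point 2-fold series) in NaPi pH 6.5 buffer with DTT and gamma globulin. Biotin-4G2 peptide then added for 20 min, followed by Eu-streptavidin/APC-anti-His for 20 min; TR-FRET 665/615 nm ratio normalized, IC50 fitted.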

Sequence of Human eIF4E (aa 28-217) / biotin labeled 4G2 peptide (P06730 28-217): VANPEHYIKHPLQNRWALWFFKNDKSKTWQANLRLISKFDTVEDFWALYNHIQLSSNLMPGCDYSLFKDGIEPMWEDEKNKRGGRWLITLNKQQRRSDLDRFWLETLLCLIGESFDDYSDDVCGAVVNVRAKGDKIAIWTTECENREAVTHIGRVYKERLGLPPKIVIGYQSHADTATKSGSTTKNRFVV

| IC50 [µM] | SMILES |
| --- | --- |
| 1 to 10 | CC(C)Cc1sc(NCC(Cc2ccc(N(C)C)nc2)C(=O)O)nc1-c1ccc(Cl)c(Cl)c1 (centres unmarked) [I-154] |
| 1 to 10 | CC(C)Cc1sc(NCC(Cc2cccnc2)C(=O)O)nc1-c1ccc(Cl)c(Cl)c1 (centres unmarked) [I-155] |
| 1 to 10 | Cc1ncccc1CC(CNc1nc(-c2ccc(Cl)c(Cl)c2)c(CC(C)C)s1)C(=O)O (centres unmarked) [I-156] |
| 1 to 10 | Cc1ccc(CC(CNc2nc(-c3ccc(Cl)c(Cl)c3)c(CC(C)C)s2)C(=O)O)c(C)n1 (centres unmarked) [I-157] |
| 1 to 10 | CC(C)Cc1sc(NCC(Cc2ccccn2)C(=O)O)nc1-c1ccc(Cl)c(Cl)c1 (centres unmarked) [I-158] |
| 1 to 10 | CC(C)Cc1sc(NCC(Cc2cnc(O)nc2)C(=O)O)nc1-c1ccc(Cl)c(Cl)c1 (centres unmarked) [I-159, 3-(4-(3,4-dichlorophenyl)-5-isobutylthiazol-2-ylamino)-2-((2-hydroxypyrimidin-5-yl)methyl)propanoic acid] |
| > 10 | COc1ncc(CC(CNc2nc(-c3ccc(Cl)c(Cl)c3)c(CC(C)C)s2)C(=O)O)cn1 (centres unmarked) [I-160] |
| 1 to 10 | CC(C)Cc1sc(NCC(Cc2ccncn2)C(=O)O)nc1-c1ccc(Cl)c(Cl)c1 (centres unmarked) [I-161] |
| 1 to 10 | CC(C)Cc1sc(NCC(Cc2ccc(O)nc2)C(=O)O)nc1-c1ccc(Cl)c(Cl)c1 (centres unmarked) [I-162] |
| 1 to 10 | COc1ccc(CC(CNc2nc(-c3ccc(Cl)c(Cl)c3)c(CC(C)C)s2)C(=O)O)cn1 (centres unmarked) [I-163] |
| 1 to 10 | CC(C)Cc1sc(NCC(Cc2ccnc(O)c2)C(=O)O)nc1-c1ccc(Cl)c(Cl)c1 (centres unmarked) [I-164] |
| 1 to 10 | COc1cc(CC(CNc2nc(-c3ccc(Cl)c(Cl)c3)c(CC(C)C)s2)C(=O)O)ccn1 (centres unmarked) [I-165] |
| 1 to 10 | CC(C)Cc1sc(NCC(Cc2ccc(C(N)=O)cc2)C(=O)O)nc1-c1ccc(Cl)c(Cl)c1 (centres unmarked) [I-166, 2-(4-carbamoylbenzyl)-3-(4-(3,4-dichlorophenyl)-5-isobutylthiazol-2-ylamino)propanoic acid] |
| 1 to 10 | CC(C)Cc1sc(NCC(Cc2cccc(C(N)=O)c2)C(=O)O)nc1-c1ccc(Cl)c(Cl)c1 (centres unmarked) [I-167] |
| 1 to 10 | CC(C)Cc1sc(NCC(Cc2cccc(C(=O)N(C)C)c2)C(=O)O)nc1-c1ccc(Cl)c(Cl)c1 (centres unmarked) [I-168, 3-(4-(3,4-dichlorophenyl)-5-isobutylthiazol-2-ylamino)-2-(3-(dimethylcarbamoyl)benzyl)propanoic acid] |
| 1 to 10 | CNC(=O)c1cccc(CC(CNc2nc(-c3ccc(Cl)c(Cl)c3)c(CC(C)C)s2)C(=O)O)c1 (centres unmarked) [I-169] |
| 1 to 10 | CC(C)Cc1sc(N2CCN(c3ccccc3)C(C(=O)O)C2)nc1-c1ccc(Cl)c(Cl)c1 (centres unmarked) [I-170] |
| ≤ 1 | CSc1cccc(CC(CNc2nc(-c3ccc(Cl)c(Cl)c3)c(CC(C)C)s2)C(=O)O)c1 (centres unmarked) [I-171] |
| 1 to 10 | CC(C)Cc1sc(NCC(Cc2cccc(S(C)(=O)=O)c2)C(=O)O)nc1-c1ccc(Cl)c(Cl)c1 (centres unmarked) [I-172] |
| 1 to 10 | CC(C)Cc1sc(NCC(Cc2cccc(S(N)(=O)=O)c2)C(=O)O)nc1-c1ccc(Cl)c(Cl)c1 (centres unmarked) [I-173] |
| ≤ 1 | CSc1ccc(CC(CNc2nc(-c3ccc(Cl)c(Cl)c3)c(CC(C)C)s2)C(=O)O)cc1 (centres unmarked) [I-174] |
| 1 to 10 | CC(C)Cc1sc(NCC(Cc2ccc(S(C)(=O)=O)cc2)C(=O)O)nc1-c1ccc(Cl)c(Cl)c1 (centres unmarked) [I-175] |

| IC50 [µM] | SMILES |
| --- | --- |
| 1 to 10 | CC(C)Cc1sc(NCC(Cc2ccc(S(N)(=O)=O)cc2)C(=O)O)nc1-c1ccc(Cl)c(Cl)c1 (centres unmarked) [I-176] |
| ≤ 1 | O=C(O)C(CNc1nc(-c2ccc(Cl)c(Cl)c2)c(C2CCCC2)s1)Cc1ccccc1 (centres unmarked) [I-177] |
| 1 to 10 | O=C(O)C(CNc1nc(-c2ccc(Cl)c(Cl)c2)c(C2CCC2)s1)Cc1ccccc1 (centres unmarked) [I-178] |
| 1 to 10 | O=C(O)C(CNc1nc(-c2ccc(Cl)c(Cl)c2)c(CC2CC2)s1)Cc1ccccc1 (centres unmarked) [I-179] |
| ≤ 1 | CC(C)CCc1sc(NCC(Cc2ccccc2)C(=O)O)nc1-c1ccc(Cl)c(Cl)c1 (centres unmarked) [I-180] |
| > 10 | CS(=O)(=O)c1sc(NCC(Cc2ccccc2)C(=O)O)nc1-c1ccc(Cl)c(Cl)c1 (centres unmarked) [I-181, 2-benzyl-3-(4-(3,4-dichlorophenyl)-5-(methylsulfonyl)thiazol-2-ylamino)propanoic acid] |
| 1 to 10 | CCOC(=O)c1sc(NCC(Cc2ccccc2)C(=O)O)nc1-c1ccc(Cl)c(Cl)c1 (centres unmarked) [I-182, 2-benzyl-3-(4-(3,4-dichlorophenyl)-5-(ethoxycarbonyl)thiazol-2-ylamino)propanoic acid] |
| > 10 | O=C(O)c1sc(NCC(Cc2ccccc2)C(=O)O)nc1-c1ccc(Cl)c(Cl)c1 (centres unmarked) [I-183, 2-(2-carboxy-3-phenylpropylamino)-4-(3,4-dichlorophenyl)thiazole-5-carboxylic acid] |
| 1 to 10 | O=C(O)C(CNc1nc(-c2ccc(Cl)c(Cl)c2)c(CC(F)(F)F)s1)Cc1ccccc1 (centres unmarked) [I-184, 2-benzyl-3-(4-(3,4-dichlorophenyl)-5-(2,2,2-trifluoroethyl)thiazol-2-ylamino)propanoic acid] |
| 1 to 10 | C=C(C)c1sc(NCC(Cc2ccccc2)C(=O)O)nc1-c1ccc(Cl)c(Cl)c1 (centres unmarked) [I-185, 2-benzyl-3-(4-(3,4-dichlorophenyl)-5-(prop-1-en-2-yl)thiazol-2-ylamino)propanoic acid] |
| > 10 | CC(C)Cc1sc(N(CCS(=O)(=O)NC(=O)CN)Cc2ccccc2)nc1-c1ccc(Cl)c(Cl)c1 [I-187, 2-amino-N-(2-(benzyl(4-(3,4-dichlorophenyl)-5-isobutylthiazol-2-yl)amino)ethylsulfonyl)acetamide] |
| > 10 | CC(C)Cc1sc(N(CCS(=O)(=O)NC(=O)CCN)Cc2ccccc2)nc1-c1ccc(Cl)c(Cl)c1 [I-188] |
| > 10 | CC(C)Cc1sc(N(CCC(N)=O)Cc2ccccc2)nc1-c1ccc(Cl)c(Cl)c1 [I-189] |
| ≤ 1 | CC(C)Cc1sc(N(Cc2ccccc2)CC(O)C(=O)O)nc1-c1ccc(Cl)c(Cl)c1 (centres unmarked) [I-190, 3-(benzyl(4-(3,4-dichlorophenyl)-5-isobutylthiazol-2-yl)amino)-2-hydroxypropanoic acid] |
| 1 to 10 | CC(C)Cc1sc(N(CCCN)Cc2ccccc2)nc1-c1ccc(Cl)c(Cl)c1 [I-191, N^1-benzyl-N^1-(4-(3,4-dichlorophenyl)-5-isobutylthiazol-2-yl)propane-1,3-diamine] |
| 1 to 10 | CC(C)Cc1sc(N(CCC(=O)NCCCN)Cc2ccccc2)nc1-c1ccc(Cl)c(Cl)c1 [I-192] |
| > 10 | CC(C)Cc1sc(N(CCC(=O)NCC(N)=O)Cc2ccccc2)nc1-c1ccc(Cl)c(Cl)c1 [I-193] |
| > 10 | CC(C)Cc1sc(N(CCC(=O)NCc2ncc[nH]2)Cc2ccccc2)nc1-c1ccc(Cl)c(Cl)c1 [I-195] |
| 1 to 10 | CC(C)Cc1sc(N(CCC(=O)NCC(=O)O)Cc2ccccc2)nc1-c1ccc(Cl)c(Cl)c1 [I-196] |
| 1 to 10 | CC(C)Cc1sc(N(CCC(=O)NCCNC(=N)N)Cc2ccccc2)nc1-c1ccc(Cl)c(Cl)c1 [I-197, 3-(benzyl(4-(3,4-dichlorophenyl)-5-isobutylthiazol-2-yl)amino)-N-(2-guanidinoethyl) propanamide] |
| > 10 | CC(C)Cc1sc(N(CCC(=O)NS(=O)(=O)CCN)Cc2ccccc2)nc1-c1ccc(Cl)c(Cl)c1 [I-198] |
| > 10 | CC(C)Cc1sc(N2CCN(C(=O)CCN)C(C(=O)O)C2)nc1-c1ccc(Cl)c(Cl)c1 (centres unmarked) [I-199, 1-(3-aminopropanoyl)-4-(4-(3,4-dichlorophenyl)-5-isobutylthiazol-2-yl)piperazine-2-carboxylic acid] |
